Measured values as given in patent US7696244B2, “Compounds having activity in increasing ion transport by mutant-CFTR and uses thereof” (The Regents of the University of California, priority 2003, dated 2010).

How the values were obtained:
human ΔF508-CFTR = target: T1, human ΔF508-CFTR (Homo sapiens, UniProt P13569, DEL508-508); assay: Fluorescence (YFP-H148Q/I152L) I− influx assay of ΔF508-CFTR potentiator activity in FRT cells; format: cell-based; settings: for Kd: FRT cells, 27° C. rescue, forskolin 20 μM, read-out: Kd for activation of ΔF508-CFTR from the fluorescence assay
T1 construct: expressed in transfected cells; host or cells: Fischer rat thyroid (FRT) epithelial cells
Protocol: (§1) Clonal populations of Fischer rat thyroid (FRT) epithelial cells stably co-expressing human ΔF508-CFTR and the high-sensitivity halide-sensing green fluorescent analog YFP-H148Q/I152L (Galietta et al., A.S. (2001) FEBS Lett. 499, 220-224) were generated by liposome transfection and limiting dilution with Zeocin/G418 selection. More than 100 clones were evaluated for high fluorescence and ΔF508-CFTR plasma membrane targeting after growth at 27° C. for 24 hours. For screening, cells were cultured on plastic in Coon's modified F12 medium supplemented with 10% fetal bovine serum, 2 mM L-glutamnine, 100 U/ml penicillin, and 100 μg/ml streptomycin, and plated on black 96-well microplates (Corning-Costar 3904) at 30,000 cells/well. For short-circuit measurements cells were cultured on Snapwell permeable supports (Corning-Costar) at 500,000 cells/insert. Some measurements were done using stably transfected FRT cells expressing YFP-H148Q and wildtype- or G551D-CFTR (Galietta et al., (2001) J. Biol. Chem. 276, 19723-19728). Patch clamp experiments were done on ΔF508-CFTR-expressing FRT cells plated in 35-mm Petri dishes.
For assay of ΔF508-CFTR potentiator activity the incubator (27° C., 90% humidity, 5% CO2/95% air) was loaded with forty-to-sixty 96-well plates containing FRT cells. After an 18-24 hour incubation plates were washed 3 times with PBS (300 μl/wash) leaving 50 μl PBS. 10 μl of PBS containing 120 μM forskolin was added, and after 5 min test compounds (0.6 μl of 0.25 mM DMSO solution) were added to each well to give 2.5 μM final-compound concentrations. After 15 min, 96-well plates were transferred to a plate reader for fluorescence assay. Each well was assayed individually for I^− influx by recording fluorescence continuously (200 ms per point) for 2 s (baseline) and then for 12 s after rapid (<1 s) addition of 160 μL of isosmolar PBS in which 137 mM Cl^− was replaced by I^−.I^− influx rates were computed from initial fluorescence versus time-curve slopes (determined by 3rd order polynomial regression) after normalization for total fluorescence (background subtracted initial fluorescence).
The high-throughput screen was designed to identify compounds that activated ΔF508-CFTR when expressed at the cell plasma membrane. FRT epithelial cells co-expressing ΔF508-CFTR and a high sensitivity green fluorescent protein-based halide indicator were incubated at 27° C. for 24 h to permit ΔF508-CFTR plasma membrane targeting (FIG. 1A). After washing, forskolin (20 μM) and test compounds (2.5 μM) were added to individual wells of 96-well plates. The I^− influx assay was carried out ˜15 min later by measurement of the time course of decreasing YFP fluorescence after creation of an inwardly-directed I^− gradient. A high concentration of forskolin was used to identify ΔF508-CFTR potentiators that may interact directly with ΔF508-CFTR rather than alter cAMP concentration. Since activation of CFTR requires cAMP stimulation, forskolin, an enhancer of cAMP, was added to the in vitro models in order to mimic the cellular cAMP stimulation.
The strong potentiators were subjected to secondary analysis to select a subset for further analysis. None of the strong potentiators stimulated I^− influx in the fluorescence assay using FRT null cells (expressing YFP-H148Q/[…] alone) or in ΔF508-CFTR expressing cells in the absence of forskolin. The increased I^− influx for each potentiator was blocked by the thiazolidinone CFTR inhibitor CFTRinh-172 (19). […] Several of these compounds are shown in FIG. 6, along with data as to the activity of these compounds.

cellular cAMP content = assay: Cellular cAMP content in FRT cells (BIOTRAK enzymatic immunoassay); format: cell-based, rat
Protocol: (§2) cAMP activity was measured using the BIOTRAK enzymatic immunoassay (Amersham) on FRT cell lysates after incubation with the compound of interest for 10 min without or with 0.5 μM forskolin. Phosphatase activity was determined on cell homogenates using a non-radioactive assay kit (Promega) as described previously (Galietta et al., (2001) J. Biol. Chem. 276, 19723-19728).
(§3) The compounds shown in FIGS. 2A and 3A were assayed for cAMP stimulation and phosphatase inhibition. Cellular cAMP content was measured in FRT cells in the presence of a low forskolin concentration (0.5 μM) with or without test compounds. […] Maximal forskolin (20 μM) gave 1350±17 finol/well. The ΔF508 potentiators at 5 μM gave no increase in cellular cAMP content, except for ΔF508act-04 and ΔF508act-06, which gave modest cAMP elevations (212±17 and 281±37 finol/well, respectively). […] The ΔF508-CFTR potentiators (25 μM, 48 h) were judged to be non-toxic to FRT cells by the dihydrorhodamine assay (Wang et al., (2000) J. Physiol. 524:637-638) and by unimpaired cell growth.

G551D-CFTR = target: T2, G551D-CFTR (Homo sapiens, UniProt P13569, G551D); assay: Activation of G551D-CFTR in transfected FRT cells; format: cell-based; settings: positive control 50 μM + 20 μM forskolin
T2 construct: expressed in transfected cells; host or cells: FRT cells
Protocol: as §1, with “For screening, cells were cultured on plastic in Coon's modified F12 medium supplemented with 10% fetal bovine serum, 2 mM L-glutamnine, 100 U/ml penicillin, and 100 μg/ml streptomycin, and plated on black 96-well microplates (Corning-Costar 3904) at 30,000 cells/well.” left out

[1] = system: human bronchial epithelial cells; assay: Short-circuit current in human bronchial epithelial cells; format: cell-based; settings: S.E., n=3-5
Protocol: Using chamber experiments were performed 7-9 days after plating ΔF508-CFTR expressing FRT cells on Snapwell inserts. The basolateral solution contained (in mM): 130 NaCl, 2.7 KCl, 1.5 KH2PO4, 1 CaCl2, 0.5 MgCl2, 10 glucose, 10 Na-Hepes (pH 7.3). In the apical bathing solution 65 mM NaCl was replaced by Na gluconate, and CaCl2 was increased to 2 mM. Solutions were bubbled with air and maintained at 37° C. The basolateral membrane was permeabilized with 250 μg/ml amphotericin B. For human bronchial epithelial cells, apical and basolateral chambers contained 126 mM NaCl, 0.38 mM KH2PO4, 2.1 mM K2HPO, 1 mM MgSO4, 1 mM CaCl2, 24 mM NaHCO3, and 10 mM glucose (basolateral membrane not permeabilized). The hemichambers were connected to a DVC-1000 voltage clamp (World Precision Instruments) via Ag/AgCl electrodes and 1 M KCl agar bridges for recording short-circuit current
The mean increase in short-circuit current (Isc) was 1.2±0.1 μA/cm^2 in the human cells (S.E., n=25). In five sets of measurements on the human bronchial cells, the percentage increase in Isc after compound versus forskolin alone was 174±28 (genistein); percentages for ΔF508act-01 through ΔF508act-06 were (S.E., n=3-5): 174±34, 131±35, 40±11, 51±17, 107±42, and 104±35, respectively.

phosphatase activity = assay: Phosphatase activity assay on cell homogenates; format: biochemical
Protocol: as §2, §3

wildtype CFTR = target: T3, wildtype CFTR (Homo sapiens, UniProt P13569); assay: Activation of wildtype CFTR in transfected FRT cells; format: cell-based; settings: in the presence of forskolin 50 nM
T3 construct: expressed in transfected cells; host or cells: FRT cells
Protocol: as §1
The six ΔF508-CFTR potentiators shown in FIG. 2A were tested for activation of wildtype and G551D-CFTR in transfected FRT cells. […] Kd values for activation of wildtype CFTR by ΔF508act-01 through ΔF508act-06 were (in μM): 0.18±0.02, 1.3±0.2, 2.2±0.3, 0.02±0.005, 0.06±0.01 and 0.05±0.01, respectively. These potencies are quite different from those for ΔF508-CFTR activation.

[2] = compound 5 μM, forskolin 0.5 μM, control 129±7

T1 sequence (P13569 with tags, fused parts or gaps DEL508-508): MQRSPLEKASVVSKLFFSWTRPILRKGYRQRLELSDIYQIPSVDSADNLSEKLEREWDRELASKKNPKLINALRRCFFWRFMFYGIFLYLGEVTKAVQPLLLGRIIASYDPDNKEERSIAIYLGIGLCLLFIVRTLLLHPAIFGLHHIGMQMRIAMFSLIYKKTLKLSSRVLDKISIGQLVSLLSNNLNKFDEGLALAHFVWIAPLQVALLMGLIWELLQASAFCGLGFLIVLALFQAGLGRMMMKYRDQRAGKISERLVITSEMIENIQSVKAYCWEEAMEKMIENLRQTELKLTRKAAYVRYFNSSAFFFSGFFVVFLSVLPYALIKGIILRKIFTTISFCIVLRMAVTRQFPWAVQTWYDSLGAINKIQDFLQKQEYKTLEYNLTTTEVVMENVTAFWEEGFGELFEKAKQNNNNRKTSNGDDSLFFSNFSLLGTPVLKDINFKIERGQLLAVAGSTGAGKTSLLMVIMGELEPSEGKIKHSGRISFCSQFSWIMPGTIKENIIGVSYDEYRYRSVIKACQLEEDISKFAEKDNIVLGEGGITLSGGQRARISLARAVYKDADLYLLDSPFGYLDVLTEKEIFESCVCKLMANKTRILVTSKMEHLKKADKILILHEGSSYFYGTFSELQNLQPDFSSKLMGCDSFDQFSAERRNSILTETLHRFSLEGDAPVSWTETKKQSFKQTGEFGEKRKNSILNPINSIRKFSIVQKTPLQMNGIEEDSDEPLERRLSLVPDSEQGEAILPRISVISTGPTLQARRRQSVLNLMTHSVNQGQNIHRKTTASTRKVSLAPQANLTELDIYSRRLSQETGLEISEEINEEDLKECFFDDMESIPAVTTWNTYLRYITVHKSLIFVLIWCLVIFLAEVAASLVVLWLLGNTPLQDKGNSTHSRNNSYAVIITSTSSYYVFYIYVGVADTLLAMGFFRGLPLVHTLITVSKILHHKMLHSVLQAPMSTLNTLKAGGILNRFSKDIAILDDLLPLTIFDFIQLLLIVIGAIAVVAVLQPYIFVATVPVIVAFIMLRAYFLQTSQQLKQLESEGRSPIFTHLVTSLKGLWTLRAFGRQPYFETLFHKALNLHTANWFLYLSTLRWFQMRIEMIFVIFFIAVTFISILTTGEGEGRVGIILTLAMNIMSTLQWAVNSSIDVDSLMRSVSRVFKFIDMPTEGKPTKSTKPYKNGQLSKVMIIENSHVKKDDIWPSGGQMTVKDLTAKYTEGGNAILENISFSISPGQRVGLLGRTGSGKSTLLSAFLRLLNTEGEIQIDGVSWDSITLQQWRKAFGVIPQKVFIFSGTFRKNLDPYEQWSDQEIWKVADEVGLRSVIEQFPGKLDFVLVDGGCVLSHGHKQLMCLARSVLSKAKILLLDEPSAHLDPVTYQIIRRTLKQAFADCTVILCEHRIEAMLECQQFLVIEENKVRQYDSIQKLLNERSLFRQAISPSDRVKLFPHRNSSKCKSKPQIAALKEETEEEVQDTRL
T3 sequence (P13569 whole entry): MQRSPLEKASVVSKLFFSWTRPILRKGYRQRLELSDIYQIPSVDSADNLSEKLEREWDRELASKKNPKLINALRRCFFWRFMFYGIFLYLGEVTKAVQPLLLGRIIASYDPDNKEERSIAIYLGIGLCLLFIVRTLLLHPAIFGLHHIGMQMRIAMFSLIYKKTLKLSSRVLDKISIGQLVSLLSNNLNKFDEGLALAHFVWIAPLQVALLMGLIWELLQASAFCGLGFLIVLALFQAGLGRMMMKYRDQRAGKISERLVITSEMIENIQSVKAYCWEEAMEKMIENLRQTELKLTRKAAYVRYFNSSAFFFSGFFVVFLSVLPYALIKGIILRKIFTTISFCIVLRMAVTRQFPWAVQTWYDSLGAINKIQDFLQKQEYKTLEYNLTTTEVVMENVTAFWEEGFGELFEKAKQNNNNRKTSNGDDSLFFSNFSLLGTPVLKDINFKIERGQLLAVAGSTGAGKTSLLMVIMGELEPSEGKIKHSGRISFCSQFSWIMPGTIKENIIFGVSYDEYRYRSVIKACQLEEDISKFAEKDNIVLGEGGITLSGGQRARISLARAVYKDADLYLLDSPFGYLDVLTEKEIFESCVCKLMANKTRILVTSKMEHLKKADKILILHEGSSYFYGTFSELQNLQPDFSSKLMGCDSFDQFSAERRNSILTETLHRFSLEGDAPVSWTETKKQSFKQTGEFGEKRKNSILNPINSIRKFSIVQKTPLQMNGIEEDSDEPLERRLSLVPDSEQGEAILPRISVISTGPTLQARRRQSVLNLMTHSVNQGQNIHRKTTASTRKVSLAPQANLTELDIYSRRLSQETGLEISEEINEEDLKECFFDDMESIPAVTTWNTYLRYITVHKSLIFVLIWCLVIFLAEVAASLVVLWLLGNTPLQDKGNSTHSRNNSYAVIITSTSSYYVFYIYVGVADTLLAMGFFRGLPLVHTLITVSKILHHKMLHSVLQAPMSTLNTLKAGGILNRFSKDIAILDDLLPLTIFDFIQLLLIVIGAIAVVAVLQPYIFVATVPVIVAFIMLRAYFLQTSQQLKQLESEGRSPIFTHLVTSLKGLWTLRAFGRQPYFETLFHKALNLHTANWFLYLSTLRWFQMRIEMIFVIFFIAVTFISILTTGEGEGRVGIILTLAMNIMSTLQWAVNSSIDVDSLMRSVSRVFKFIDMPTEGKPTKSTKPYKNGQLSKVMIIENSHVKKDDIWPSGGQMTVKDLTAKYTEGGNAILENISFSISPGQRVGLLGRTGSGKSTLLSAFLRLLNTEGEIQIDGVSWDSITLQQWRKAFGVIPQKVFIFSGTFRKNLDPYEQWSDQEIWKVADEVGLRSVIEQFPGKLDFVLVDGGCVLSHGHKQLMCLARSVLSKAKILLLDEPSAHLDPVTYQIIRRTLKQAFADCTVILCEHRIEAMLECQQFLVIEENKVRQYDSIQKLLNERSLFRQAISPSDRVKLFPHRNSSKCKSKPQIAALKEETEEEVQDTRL
T2 sequence (P13569 whole entry G551D): as the sequence (P13569 whole entry) above, with G551D counted along it

Row | Structure (SMILES) | percentage increase in Isc after compound versus forskolin alone [1] [%] | Kd (human ΔF508-CFTR) [nM] | Kd (wildtype CFTR) [nM] | other results
1 | O=C(O)c1ccc(/C=C2\SC(=S)N(c3cccc(C(F)(F)F)c3)C2=O)cc1 [CFTRinh-172, reference compound] |  |  |  | effect on potentiator-increased I− influx (human ΔF508-CFTR): blocked
2 | C=C[C@@]1(C)CC(=O)[C@]2(O)[C@@]3(C)[C@@H](O)CCC(C)(C)[C@@H]3[C@H](O)[C@H](OC(C)=O)[C@@]2(C)O1 [forskolin, reference compound] |  |  |  | cAMP content (cellular cAMP content; maximal forskolin 20 μM): 1350±17 finol/well
3 | O=c1c(-c2ccc(O)cc2)coc2cc(O)cc(O)c12 [genistein, reference compound] | 174±28 |  |  | G551D-CFTR activation (G551D-CFTR): strong activation
4 | C=C1[C@@H](O)[C@@H]2O[C@]3(CC[C@H](/C=C/[C@@H](C)[C@@H]4CC(C)=C[C@@]5(O[C@H](C[C@@](C)(O)C(=O)O)CC[C@H]5O)O4)O3)CC[C@H]2O[C@@H]1[C@@H](O)C[C@H](C)[C@H]1O[C@@]2(CCCCO2)CC[C@H]1C [okadaic acid] |  |  |  | inhibition of phosphatase activity (phosphatase activity): > 90%; phosphatase activity (phosphatase activity; control 703±69): 56±15 pmol free phosphate/μg protein
5 | COc1ccc(-n2c(C)cc(C=C3C(=O)NC(=O)N(Cc4ccco4)C3=O)c2C)cc1 [ΔF508act-01, 1-Furan-2-yhnethyl-5-[1-(4-methoxy-phenyl)-2,5-dimethyl-1H-pyrrol-3-ylmethylene]-pyrimidine-2,4,6-trione] | 174±34 | 1300 ± 100 |  | 
6 | NC(=O)c1c(NC(=O)c2ccccc2Cl)sc2c1CCCC2 [ΔF508act-02, 2-(2-Chloro-benzoylamino)-4,5,6,7-tetrahydro-benzo[b]thiophene-3-carboxylic acid amide] | 131±35 | 180 ± 30 | 1300 ± 200 | 
7 | Cc1cc(Br)c2[nH]c3c(c2c1)CCCC3=O [ΔF508act-03, 8-Bromo-6-methyl-2,3,4,9-tetrahydro-carbazol-1-one] | 40±11 | 700 ± 40 | 2200 ± 300 | 
8 | CC(C)(C)c1ccc(Oc2c(N)ccc3c2C(=O)c2ccccc2C3=O)cc1 [ΔF508act-04, 2-Amino-1-(4-tert-butyl-phenoxy)-anthraquinone] | 51±17 | 870 ± 100 | 20 ± 5 | cAMP content (cellular cAMP content; [2]): 212±17 finol/well
9 | COC(=O)C1=C(C)NC(C)=C(C(=O)OC)C1c1ccc(C(C)C)cc1 [ΔF508act-05, 4-(4-Isopropyl-phenyl)-2,6-dimethyl-1,4-dihydro-pyridine-3,5-dicarboxylic acid dimethyl ester] | 107±42 | 100 ± 10 | 60 ± 10 | 
10 | NC(=O)c1oc2ccccc2c1NC(=O)c1ccccc1 [ΔF508act-06, 3-Benzoylamino-benzofuran-2-carboxylic acid amide] | 104±35 | 650 ± 80 | 50 ± 10 | cAMP content (cellular cAMP content; [2]): 281±37 finol/well
